Experimental data as given in patent US7414040B2, “Thrombopoietin mimetics” (SmithKline Beecham Corporation, priority 2002, dated 2008).

Biological target: T1, human Tpo-R (Homo sapiens, UniProt P40238)
T1 construct: expressed in transfected cells; host or cells: murine BaF3 cell line
T1 sequence (P40238 26-635): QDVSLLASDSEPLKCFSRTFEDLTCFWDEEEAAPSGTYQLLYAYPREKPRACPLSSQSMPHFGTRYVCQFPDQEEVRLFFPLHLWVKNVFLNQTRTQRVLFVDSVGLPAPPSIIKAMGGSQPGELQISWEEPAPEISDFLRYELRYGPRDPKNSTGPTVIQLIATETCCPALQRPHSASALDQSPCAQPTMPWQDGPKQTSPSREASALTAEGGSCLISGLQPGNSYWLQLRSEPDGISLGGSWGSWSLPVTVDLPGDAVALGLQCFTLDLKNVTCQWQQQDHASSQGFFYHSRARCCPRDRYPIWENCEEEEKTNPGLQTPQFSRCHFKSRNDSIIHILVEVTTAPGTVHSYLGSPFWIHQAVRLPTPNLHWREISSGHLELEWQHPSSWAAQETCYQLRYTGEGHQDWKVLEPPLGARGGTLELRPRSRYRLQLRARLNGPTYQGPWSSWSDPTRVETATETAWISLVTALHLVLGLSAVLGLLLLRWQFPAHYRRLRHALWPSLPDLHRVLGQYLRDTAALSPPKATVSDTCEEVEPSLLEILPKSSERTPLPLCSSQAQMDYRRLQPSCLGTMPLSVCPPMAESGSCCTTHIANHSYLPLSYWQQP
Test: BaF3/hTPO-R in vitro proliferation assay
Assay type: cell-based
Conditions: murine BaF3 cell line transfected with human Tpo-R
Protocol: Compounds of the present invention were tested for potency as mimetics of TPO in an in vitro proliferation assay using the murine BaF3 cell line transfected with human Tpo-R. Survival and growth is dependent on the presence of TPO.

`CC1=NN(C2CCCCC2)C(=O)C1=NNc1cccc(-c2cccc(C(=O)O)c2)c1O` [Example 1, 3′-[N′-(1-cyclohexyl-3-methyl-5-oxo-1,5-dihydro-pyrazol-4-ylidene)-hydrazino]-2′-hydroxy-biphenyl-3-carboxylic acid] was tested, and the EC50 was 800 nM and the “activity, % TPO” value (relative to TPO) was 160 % TPO.
